Source: patent US20220289708A1, “SUBSTITUTED N-PHENYL URACILS, SALTS THEREOF AND THEIR USE AS HERBICIDAL AGENTS” (Bayer Aktiengesellschaft, priority 2019, published 2022)
Each block holds one compound with its values, some of them ahead of it.

Legend:
Type in all cases: in vivo
[1] = system: Digitaria sanguinalis; assay: Post-emergence herbicidal action; settings: application rate 5 g/ha, rated visually after about 3 weeks vs untreated controls
Summary of the method: (§1)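 Test plants, raised in sandy loam in the greenhouse, were treated 2 to 3 weeks after sowing at application rates of 20 g/ha or lower. Scoring compared treated with untreated plants roughly 3 weeks on, where 100% meant death and 0% meant no visible effect.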

[2] = system: Pharbitis purpurea; assay: Post-emergence herbicidal action; settings: application rate 5 g/ha, rated visually after about 3 weeks vs untreated controls
Summary of the method: as §1

[3] = system: Amaranthus retroflexus; assay: Post-emergence herbicidal action; settings: application rate 5 g/ha, rated visually after about 3 weeks vs untreated controls
Summary of the method: as §1

[4] = system: Echinochloa crus-galli; assay: Post-emergence herbicidal action; settings: application rate 5 g/ha, rated visually after about 3 weeks vs untreated controls
Summary of the method: as §1

[5] = system: Abutilon theophrasti; assay: Post-emergence herbicidal action; settings: application rate 5 g/ha, rated visually after about 3 weeks vs untreated controls
Summary of the method: as §1

[6] = system: Veronica persica; assay: Post-emergence herbicidal action; settings: application rate 5 g/ha
Summary of the method: as §1

[7] = system: Zea mays; assay: Pre-emergence crop plant compatibility; settings: application rate 20 g/ha
Description: (§2) B. Pre-Emergence Herbicidal Action and Crop Plant Compatibility
(§3) Seeds of monocotyledonous and dicotyledonous weed plants and crop plants were placed in plastic or organic planting pots and covered with soil. The compounds of the invention, formulated in the form of wettable powders (WP) or as emulsion concentrates (EC), were then applied to the surface of the covering soil as aqueous suspension or emulsion with addition of 0.5% additive at a water application rate equivalent to 600 l/ha (converted). After the treatment, the pots were placed in a greenhouse and kept under good growth conditions for the test plants. After about 3 weeks, the effect of the preparations was scored visually in comparison with untreated controls as percentages. For example, 100% activity=the plants have died, 0% activity=like control plants.
(§4) Tables B14 to B16 below show the crop plant compatibilities of selected compounds of the general formula (I) according to Tables I.1 to I.36 at an application rate corresponding to 20 g/ha, which were obtained in experiments according to the experimental procedure mentioned above. Here, the observed effects on selected crop plants are stated in comparison to the untreated controls (values in %).

[8] = system: Oryza sativa; assay: Post-emergence crop plant compatibility; settings: application rate 5 g/ha
Summary of the method: (§5)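 Greenhouse crop plants in sandy loam sprayed at one-leaf stage (2-3 weeks after sowing) with WP or EC formulations plus 0.5% additive, 600 l/ha water, at 5 g/ha or 20 g/ha. Damage scored visually after about 3 weeks as % versus untreated controls (100% = plants dead).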

[9] = system: Zea mays; assay: Post-emergence crop plant compatibility; settings: application rate 5 g/ha
Summary of the method: as §5

[10] = system: Lolium rigidum; assay: Pre-emergence herbicidal action; settings: application rate 80 g/ha
Description: as §3, with “B. Pre-Emergence Herbicidal Action and Crop Plant Compatibility Seeds of” for “Seeds of”, “control plants. Tables B1 to B13 below show the effects of selected compounds of the general formula (I) according to Tables I.1 to I.36 on various harmful plants and at an application rate corresponding to 80 g/ha or less, which were obtained by the experimental procedure mentioned above.” for “control plants.”

[11] = system: Viola tricolor; assay: Pre-emergence herbicidal action; settings: application rate 20 g/ha
Description: as §3, with “B. Pre-Emergence Herbicidal Action and Crop Plant Compatibility Seeds of” for “Seeds of”, “control plants. Tables B1 to B13 below show the effects of selected compounds of the general formula (I) according to Tables I.1 to I.36 on various harmful plants and at an application rate corresponding to 80 g/ha or less, which were obtained by the experimental procedure mentioned above.” for “control plants.”

[12] = system: Digitaria sanguinalis; assay: Pre-emergence herbicidal action; settings: application rate 20 g/ha
Description: as §3, with “B. Pre-Emergence Herbicidal Action and Crop Plant Compatibility Seeds of” for “Seeds of”, “control plants. Tables B1 to B13 below show the effects of selected compounds of the general formula (I) according to Tables I.1 to I.36 on various harmful plants and at an application rate corresponding to 80 g/ha or less, which were obtained by the experimental procedure mentioned above.” for “control plants.”

[13] = system: Pharbitis purpurea; assay: Pre-emergence herbicidal action; settings: application rate 20 g/ha
Description: as §3, with “B. Pre-Emergence Herbicidal Action and Crop Plant Compatibility Seeds of” for “Seeds of”, “control plants. Tables B1 to B13 below show the effects of selected compounds of the general formula (I) according to Tables I.1 to I.36 on various harmful plants and at an application rate corresponding to 80 g/ha or less, which were obtained by the experimental procedure mentioned above.” for “control plants.”

[14] = system: Setaria viridis; assay: Pre-emergence herbicidal action; settings: application rate 20 g/ha
Description: as §3, with “B. Pre-Emergence Herbicidal Action and Crop Plant Compatibility Seeds of” for “Seeds of”, “control plants. Tables B1 to B13 below show the effects of selected compounds of the general formula (I) according to Tables I.1 to I.36 on various harmful plants and at an application rate corresponding to 80 g/ha or less, which were obtained by the experimental procedure mentioned above.” for “control plants.”

[15] = system: Avena fatua; assay: Pre-emergence herbicidal action; settings: application rate 80 g/ha
Description: as §3, with “B. Pre-Emergence Herbicidal Action and Crop Plant Compatibility Seeds of” for “Seeds of”, “control plants. Tables B1 to B13 below show the effects of selected compounds of the general formula (I) according to Tables I.1 to I.36 on various harmful plants and at an application rate corresponding to 80 g/ha or less, which were obtained by the experimental procedure mentioned above.” for “control plants.”

[16] = system: Polygonum convolvulus; assay: Pre-emergence herbicidal action; settings: application rate 20 g/ha
Description: as §3, with “B. Pre-Emergence Herbicidal Action and Crop Plant Compatibility Seeds of” for “Seeds of”, “control plants. Tables B1 to B13 below show the effects of selected compounds of the general formula (I) according to Tables I.1 to I.36 on various harmful plants and at an application rate corresponding to 80 g/ha or less, which were obtained by the experimental procedure mentioned above.” for “control plants.”

[17] = system: Alopecurus myosuroides; assay: Pre-emergence herbicidal action
Description: as §3, with “B. Pre-Emergence Herbicidal Action and Crop Plant Compatibility Seeds of” for “Seeds of”, “control plants. Tables B1 to B13 below show the effects of selected compounds of the general formula (I) according to Tables I.1 to I.36 on various harmful plants and at an application rate corresponding to 80 g/ha or less, which were obtained by the experimental procedure mentioned above.” for “control plants.”

[18] = system: Amaranthus retroflexus; assay: Pre-emergence herbicidal action; settings: application rate 20 g/ha
Description: as §3, with “B. Pre-Emergence Herbicidal Action and Crop Plant Compatibility Seeds of” for “Seeds of”, “control plants. Tables B1 to B13 below show the effects of selected compounds of the general formula (I) according to Tables I.1 to I.36 on various harmful plants and at an application rate corresponding to 80 g/ha or less, which were obtained by the experimental procedure mentioned above.” for “control plants.”

[19] = system: Echinochloa crus-galli; assay: Pre-emergence herbicidal action
Description: as §3, with “B. Pre-Emergence Herbicidal Action and Crop Plant Compatibility Seeds of” for “Seeds of”, “control plants. Tables B1 to B13 below show the effects of selected compounds of the general formula (I) according to Tables I.1 to I.36 on various harmful plants and at an application rate corresponding to 80 g/ha or less, which were obtained by the experimental procedure mentioned above.” for “control plants.”

[20] = system: Matricaria inodora; assay: Pre-emergence herbicidal action; settings: application rate 20 g/ha
Description: as §3, with “B. Pre-Emergence Herbicidal Action and Crop Plant Compatibility Seeds of” for “Seeds of”, “control plants. Tables B1 to B13 below show the effects of selected compounds of the general formula (I) according to Tables I.1 to I.36 on various harmful plants and at an application rate corresponding to 80 g/ha or less, which were obtained by the experimental procedure mentioned above.” for “control plants.”

[21] = system: Abutilon theophrasti; assay: Pre-emergence herbicidal action; settings: application rate 20 g/ha
Description: as §3, with “B. Pre-Emergence Herbicidal Action and Crop Plant Compatibility Seeds of” for “Seeds of”, “control plants. Tables B1 to B13 below show the effects of selected compounds of the general formula (I) according to Tables I.1 to I.36 on various harmful plants and at an application rate corresponding to 80 g/ha or less, which were obtained by the experimental procedure mentioned above.” for “control plants.”

[22] = system: Veronica persica; assay: Pre-emergence herbicidal action; settings: application rate 20 g/ha
Description: as §3, with “B. Pre-Emergence Herbicidal Action and Crop Plant Compatibility Seeds of” for “Seeds of”, “control plants. Tables B1 to B13 below show the effects of selected compounds of the general formula (I) according to Tables I.1 to I.36 on various harmful plants and at an application rate corresponding to 80 g/ha or less, which were obtained by the experimental procedure mentioned above.” for “control plants.”

[23] = system: Avena fatua; assay: Post-emergence herbicidal action; settings: application rate 20 g/ha, rated visually after about 3 weeks vs untreated controls
Summary of the method: as §1

[24] = system: Matricaria inodora; assay: Post-emergence herbicidal action; settings: application rate 5 g/ha, rated visually after about 3 weeks vs untreated controls
Summary of the method: as §1

[25] = system: Triticum aestivum; assay: Pre-emergence crop plant compatibility; settings: application rate 20 g/ha
Description: as §2, §3, §4

Zea mays (efficacy in %) [7]: 0%
Oryza sativa (efficacy in %) [8]: 0%
Zea mays (efficacy in %) [9]: 20%
Compound: Cn1c(C(F)(F)F)cc(=O)n(-c2cc(Oc3cccnc3OCC(=O)OC[Si](C)(C)C)c(Cl)cc2F)c1=O [I.15-201]
Digitaria sanguinalis (efficacy in %) [1]: 100%
Pharbitis purpurea (efficacy in %) [2]: 100%
Amaranthus retroflexus (efficacy in %) [3]: 100%
Echinochloa crus-galli (efficacy in %) [4]: 100%
Abutilon theophrasti (efficacy in %) [5]: 100%
Veronica persica (efficacy in %) [6]: 100%
Lolium rigidum (efficacy in %) [10]: 100%
Viola tricolor (efficacy in %) [11]: 100%
Digitaria sanguinalis (efficacy in %) [12]: 100%
Pharbitis purpurea (efficacy in %) [13]: 100%
Setaria viridis (efficacy in %) [14]: 100%
Avena fatua (efficacy in %) [15]: 100%
Polygonum convolvulus (efficacy in %) [16]: 100%
Alopecurus myosuroides (efficacy in %) ([17]; application rate 80 g/ha): 100%
Amaranthus retroflexus (efficacy in %) [18]: 100%
Echinochloa crus-galli (efficacy in %) ([19]; application rate 80 g/ha): 100%
Matricaria inodora (efficacy in %) [20]: 100%
Abutilon theophrasti (efficacy in %) [21]: 100%
Veronica persica (efficacy in %) [22]: 100%

Triticum aestivum (efficacy in %) [25]: 10%
Compound: Cn1c(C(F)(F)F)cc(=O)n(-c2cc(Oc3cccnc3OCC(=O)OCC3OCCO3)c(Cl)cc2F)c1=O [I.15-424]
Digitaria sanguinalis (efficacy in %) [1]: 100%
Pharbitis purpurea (efficacy in %) [2]: 100%
Avena fatua (efficacy in %) [23]: 100%
Amaranthus retroflexus (efficacy in %) [3]: 100%
Echinochloa crus-galli (efficacy in %) [4]: 100%
Matricaria inodora (efficacy in %) [24]: 100%
Abutilon theophrasti (efficacy in %) [5]: 100%
Veronica persica (efficacy in %) [6]: 100%
Lolium rigidum (efficacy in %) [10]: 100%
Viola tricolor (efficacy in %) [11]: 100%
Digitaria sanguinalis (efficacy in %) [12]: 100%
Pharbitis purpurea (efficacy in %) [13]: 100%
Setaria viridis (efficacy in %) [14]: 100%
Avena fatua (efficacy in %) [15]: 100%
Polygonum convolvulus (efficacy in %) [16]: 100%
Alopecurus myosuroides (efficacy in %) ([17]; application rate 20 g/ha): 80%
Amaranthus retroflexus (efficacy in %) [18]: 100%
Echinochloa crus-galli (efficacy in %) ([19]; application rate 20 g/ha): 90%
Matricaria inodora (efficacy in %) [20]: 100%
Abutilon theophrasti (efficacy in %) [21]: 100%
Veronica persica (efficacy in %) [22]: 100%
